Assay: Henry solubility constant Hcp at 298.15 K (mol/(m3 Pa))
Details: reference: Destaillats and Charles (2002)

Row | Henry solubility constant Hcp | SMILES
1 | 0.005 | Fc1c(F)c(F)c(CO/N=C/c2ccccc2)c(F)c1F [PFBHA-benzaldehyde]
2 | 0.0047 | CC/C(C)=N\OCc1c(F)c(F)c(F)c(F)c1F [PFBHA-butanone]
3 | 0.0068 | C/C=C/C=N/OCc1c(F)c(F)c(F)c(F)c1F [PFBHA-crotonaldehyde]
4 | 0.024 | CCCCCCCCC/C=N/OCc1c(F)c(F)c(F)c(F)c1F [PFBHA-decanal]
5 | 0.019 | CC=NOCc1c(F)c(F)c(F)c(F)c1F [PFBHA-ethanal]
6 | 0.016 | Fc1c(F)c(F)c(CON=CC=NOCc2c(F)c(F)c(F)c(F)c2F)c(F)c1F [PFBHA-ethanedial]
7 | 0.0058 | CCCCC/C=N/OCc1c(F)c(F)c(F)c(F)c1F [PFBHA-hexanal]
8 | 0.016 | C=NOCc1c(F)c(F)c(F)c(F)c1F [PFBHA-methanal]
9 | 0.0079 | CCCCCCC/C=N/OCc1c(F)c(F)c(F)c(F)c1F [PFBHA-octanal]
10 | 0.011 | CC(C)=NOCc1c(F)c(F)c(F)c(F)c1F [PFBHA-propanone]
11 | 0.0095 | C=C/C=N/OCc1c(F)c(F)c(F)c(F)c1F [PFBHA-propenal]
12 | 0.024 | c1ccc2ccccc2c1 [naphthalene]

Row | SMILES | Henry solubility constant Hcp
13 | c1ccc(-c2ccccc2)cc1 [biphenyl] | 0.034
14 | Cc1ccccc1 [methylbenzene] | 0.002

Reference: Sander's compilation of Henry's law constants (doi:10.1021/je025545i)
